Test results: patent US20230404922A1, “MICROSPHERE FORMULATIONS COMPRISING BTK INHIBITORS AND METHODS FOR MAKING AND USING THE SAME” (Oakwood Laboratories, LLC, priority 2021, published 2023)

Legend:
[1] = cited from earlier work

- solubility in dichloromethane (DCM) (DCM): > 300 mg/g
- aqueous solubility (water): < 2.5 mg/g
SMILES: C=CC(=O)N1CCC[C@@H](n2nc(-c3ccc(Oc4ccccc4)cc3)c3c(N)ncnc32)C1 [ibrutinib, Ibrutinib]
- pKa [1]: about 3.74
